Test results: patent EP1191024A1, “Thiadiazines and their use as inhibitors of metalloproteinases” (Tschesche, Harald, priority 2000, dated 2002)
Counter-ions that a name gives are not always drawn. Like-named read-outs stand apart in the source and are kept apart here.

What was measured:
cdMMP-2 = cdMMP-2 (Homo sapiens, UniProt P08253); experiment: MMP microfluorometric profiling assay (fluorogenic Mca-peptide substrate); format: biochemical; conditions: for percent inhibition: cdMMP-2, @ 15 (µM)
Sequence of cdMMP-2 (P08253 110-446): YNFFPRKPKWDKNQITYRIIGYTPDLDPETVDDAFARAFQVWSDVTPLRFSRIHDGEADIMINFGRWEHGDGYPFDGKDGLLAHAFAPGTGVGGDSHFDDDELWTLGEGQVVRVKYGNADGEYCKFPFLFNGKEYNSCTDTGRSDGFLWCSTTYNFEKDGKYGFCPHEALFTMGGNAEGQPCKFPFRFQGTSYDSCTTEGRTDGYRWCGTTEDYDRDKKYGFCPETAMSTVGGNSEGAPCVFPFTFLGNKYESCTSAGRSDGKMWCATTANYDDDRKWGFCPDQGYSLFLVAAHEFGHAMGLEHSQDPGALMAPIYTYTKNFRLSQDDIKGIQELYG
Procedure: (§1) The tested MMP enzymes were prepared more specifically in the laboratories of the applicants, with the exception of MMP-1. MMP-1 from human rheumatoid synovial fibroblasts was purchased from Calbiochem-Novabiochem Corporation, LaJolla. Preparation of the recombinant catalytic domain of human Gelatinase A (cdMMP-2): The catalytic domain of Pro-Gelatinase A was prepared using an E. coli expression system according to the method described by Kröger et al^[19]. The proenzyme was activated with 0.5 mM APMA at 37°C prior to use in the assay. […] Preparation of PMNL-Gelatinase (MMP-9): Latent PMNL-pro-Gelatinase was prepared from human plasma buffy coat as described by Tschesche et al^[21]. PMNL-pro-Gelatinase was activated prior to use by incubation with Trypsin at 37°C for 10 min. Inactivation of Trypsin was accomplished with TKI. […] The overexpressed protein was isolated as inclusion bodies and the renatured protein was purified by affinity chromatography with a hydroxamate inhibitor coupled column as described^[22]. Preparation of the recombinant catalytic domain of human Collagenase-3 (cdMMP-13): Human pro-cdMMP-13 was prepared using an E. coli expression system according to the method described^[23]. The isolated pro-cdMMP-13 was activated prior to use by incubation with 5 mM HgCl2 for 2 h at 37°C.
The enzymatic activity was measured using a modified version of a resonance energy transfer fluorogenic assay as described^[26]. Progress curves were monitored by following the increase in fluorescence at 393 nm (λex = 328 nm), induced by the cleavage of the (7-methoxycoumarin-4-yl)acetyl-Pro-Leu-Gly-Leu-(3-[2,4-dinitro-phenyl]-L-2,3-diamino-propionyl)-Ala-Arg-NH2 (Mca-Pro-Leu-Gly-Leu-Dpa-Ala-Arg-NH2) fluorogenic substrate by MMPs. The fluorescent MCA-group is quenched by resonance energy transfer to the 2,4-dinitrophenyl group. Matrix metalloproteinases cleave this substrate at the Gly-Leu bond. Cleavage results in the loss of energy transfer and a large increase in fluorescence of the MCA group. This substrate is commercially available from Bachem, Switzerland.
(§2) Enzyme inhibition assays were carried out in MRB which consisted of 50 mM HEPES/NaOH, pH 7.0, 10 mM CaCl2 and 0,02% (w/v) PEG 8000 at 25°C. MMP microfluorometric profiling assay was done in white U-bottomed 96-well plates (Microfluor 1 White, Dynex, USA) with a final substrate concentration of 6 µM MCA-peptide, approximately 0.3 to 5 nM MMP with variable inhibitor concentrations and 2% DMSO vehicle. From a 1.5 mM stock (100% DMSO) the inhibitors were serially diluted with MRB to 15, 10, 5, 3, 1, 0.6, 0.3, 0.1, 0.05, 0.01 and 0.005 µM final assay concentration. Column 1, rows A through H, contained only DMSO for the "enzyme-only" wells in the assay. After preincubation for 30 min at 25°C the reaction was started by addition of substrate and the plate was read on a SpectraFluor Plus (Tecan, Germany) plate reader with excitation at 330 nm and emission at 405 nm with the gain set to 150. Each measurement was done in triplicate to ensure statistically significant results. The experiment was further controlled for background fluorescence of the substrate, for fluorescence of fully cleaved substrate and for fluorescence quenching or augmentation from solutions containing the test compounds.
(§3) Datapoints from eight different MMPs generated on the SpectraFluor Plus were directly visualized on a master Excel spreadsheet. The response of inhibition was determinated for each inhibitor concentration by comparing the amount of hydrolysis (fluorescence units generated over 30 minutes of hydrolysis) of wells containing compound with the "enzyme-only" wells in column 1. With the program GraFit (Erithacus Software Limited) a 4 parameter logistic fit to the dose-response data was used to calculate IC50 values for each compound.

cdMMP-8 = target: T1, cdMMP-8 (Homo sapiens, UniProt P22894); experiment: as above; format: biochemical
T1 construct: recombinant catalytic domain of human neutrophile Collagenase (cdMMP-8^Met80); made in house; host or cells: E. coli
T1 sequence (P22894 100-262 limits assumed): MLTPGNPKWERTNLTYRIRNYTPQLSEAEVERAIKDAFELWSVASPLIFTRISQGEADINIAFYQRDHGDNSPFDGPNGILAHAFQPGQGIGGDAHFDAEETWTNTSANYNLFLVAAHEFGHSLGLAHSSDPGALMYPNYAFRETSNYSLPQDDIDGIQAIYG
Procedure: as §1
The enzymatic activity was measured using a modified version of a resonance energy transfer fluorogenic assay as described^[26]. […] The fluorescent MCA-group is quenched by resonance energy transfer to the 2,4-dinitrophenyl group. Matrix metalloproteinases cleave this substrate at the Gly-Leu bond. Cleavage results in the loss of energy transfer and a large increase in fluorescence of the MCA group. This substrate is commercially available from Bachem, Switzerland.
as §2, with “After preincubation for 30 min at 25°C the reaction was started by addition of substrate and the plate was read on a SpectraFluor Plus (Tecan, Germany) plate reader with excitation at 330 nm and emission at 405 nm with the gain set to 150.” left out
as §3

SMILES | IC50 (cdMMP-2; read-out: cdMMP-2 IC50) [nM] | IC50 (cdMMP-8; read-out: cdMMP-8 IC50) [nM] | other results
O=C(CC1NC(=O)NC1=O)NC1=NN=C(c2ccc(C3CCCCC3)cc2)CS1 (stereo not drawn) [Example 25, N-[5-(4-Cyclohexylphenyl)-6H-1,3,4-thiadiazin-2-yl]-2-(2,5-dioxo-4-imidazolidinyl)acetamide] |  |  | percent inhibition (cdMMP-2): 53%^a)@ 15; percent inhibition (cdMMP-8; cdMMP-8, @ 15 (µM)): 56%^a)@ 15
CC(C)(C)c1ccc(S(=O)(=O)NCC(=O)NC2=NN=C(c3ccc(Cl)cc3Cl)CS2)cc1 [Example 18, 2-{[(4-tert-Butylphenyl)sulfonyl]amino}-N-[5-(2,4-dichlorophenyl)-6H-1,3,4-thiadiazin-2-yl]acetamide] | 2430 | 492 | 
O=C(CC1NC(=O)NC1=O)NC1=NN=C(c2ccc(Cl)cc2)CS1 (stereo not drawn) [Example 23, N-[5-(4-Chlorophenyl)-6H-1,3,4-thiadiazin-2-yl]-2-(2,5-dioxo-4-imidazolidinyl)-acetamide] |  | 648 | percent inhibition (cdMMP-2): 67%^a)@ 15
C[C@H](NS(=O)(=O)c1ccccc1)C(=O)NC1=NN=C(c2ccc([N+](=O)[O-])cc2)CS1 [Example 9, (2S)-N-[5-(4-Nitrophenyl)-6H-1,3,4-thiadiazin-2-yl]-2-[(phenylsulfonyl)amino]-propanamide] | 495 | 337 | 
C[C@@H](NS(=O)(=O)c1ccccc1)C(=O)NC1=NN=C(c2ccc(F)cc2)CS1 [Example 14, (2R)-N-[5-(4-Fluorophenyl)-6H-1,3,4-thiadiazin-2-yl]-2-[(phenylsulfonyl)amino]-propanamide] | 572 |  | 
O=C1C[C@@H](C(=O)NC2=NN=C(c3ccc(Cl)cc3)CS2)NC(=O)N1 [Example 30, (4S)-N-[5-(4-Chlorophenyl)-6H-1,3,4-thiadiazin-2-yl]-2,6-dioxohexahydro-4-pyrimidinecarboxamide] | 693 | 692 | 
O=C(CC1NC(=O)NC1=O)NC1=NN=C(c2ccc(Br)cc2)CS1 (stereo not drawn) [Example 24, N-[5-(4-Bromophenyl)-6H-1,3,4-thiadiazin-2-yl]-2-(2,5-dioxo-4-imidazolidinyl)-acetamide] | 864 | 578 | 
COc1ccc(S(=O)(=O)NCC(=O)NC2=NN=C(c3ccc(Cl)cc3Cl)CS2)cc1 [Example 19, N-[5-(2,4-Dichlorophenyl)-6H-1,3,4-thiadiazin-2-yl]-2-{[(4-methoxyphenyl)-sulfonyl]amino}acetamide] | 1520 | 306 | 
CC(C)[C@H](NS(=O)(=O)c1ccccc1)C(=O)NC1=NN=C(c2ccc(Cl)cc2)CS1 [Example 22, (2S)-N-[5-(4-Chlorophenyl)-6H-1,3,4-thiadiazin-2-yl]-3-methyl-2-[(phenylsulfonyl)amino]butanamide] | 1460 | 1580 | 
CC(C)[C@@H](NS(=O)(=O)c1ccccc1)C(=O)NC1=NN=C(c2ccc(Cl)cc2)CS1 [Example 2, (2R)-N-[5-(4-Chlorophenyl)-6H-1,3,4-thiadiazin-2-yl]-3-methyl-2-[(phenylsulfonyl)amino]butanamide] | 1410 | 8630 | 
C[C@H](NS(=O)(=O)c1ccccc1)C(=O)NC1=NN=C(c2ccc(C#N)cc2)CS1 [Example 3, (2S)-N-[5-(4-Cyanophenyl)-6H-1,3,4-thiadiazin-2-yl]-2-[(phenylsulfonyl)amino]-propanamide] | 390 | 440 | 
C[C@H](NS(=O)(=O)c1ccccc1)C(=O)NC1=NN=C(c2ccc(Cl)s2)CS1 [Example 10, (2S)-N-[5-(5-Chloro-2-thienyl)-6H-1,3,4-thiadiazin-2-yl]-2-[(phenylsulfonyl)-amino]propanamide] | 3100 | 371 | 
COc1ccc(C2=NN=C(NC(=O)[C@H](C)NS(=O)(=O)c3ccccc3)SC2)cc1 [Example 12, (2S)-N-[5-(4-Methoxyphenyl)-6H-1,3,4-thiadiazin-2-yl]-2-[(phenylsulfonyl)-amino]propanamide] |  | 354 | 
COc1ccc(S(=O)(=O)N[C@@H](C)C(=O)NC2=NN=C(c3ccc(C)cc3)CS2)cc1 [Example 17, (2S)-2-{[(4-Methoxyphenyl)sulfonyl]amino}-N-[5-(4-methylphenyl)-6H-1,3,4-thiadiazin-2-yl]propanamide] | 675 | 599 | 
O=C(CC1NC(=O)NC1=O)NC1=NN=C(c2ccc(N3CCCC3)cc2)CS1 (stereo not drawn) [Example 26, 2-(2,5-Dioxo-4-imidazolidinyl)-N-{5-[4-(1-pyrrolidinyl)phenyl]-6H-1,3,4-thiadiazin-2-yl}acetamide] | 890 | 1170 | 
C[C@H](NS(=O)(=O)c1ccccc1)C(=O)NC1=NN=C(c2ccc(Br)cc2)CS1 [Example 6, (2S)-N-[5-(4-Bromophenyl)-6H-1,3,4-thiadiazin-2-yl]-2-[(phenylsulfonyl)amino]-propanamide] | 455 | 231 | 
COc1ccc(S(=O)(=O)NCC(=O)NC2=NN=C(c3c(F)c(F)c(F)c(F)c3F)CS2)cc1 [Example 16, 2-{[(4-Methoxyphenyl)sulfonyl]amino}-N-[5-(2,3,4,5,6-pentafluorophenyl)-6H-1,3,4-thiadiazin-2-yl]acetamide] | 3930 | 527 | 
C=CCNC1=NN=C(c2ccc(Cl)cc2)CS1 [Example 31, N-Allyl-5-(4-chlorophenyl)-6H-1,3,4-thiadiazin-2-amine hydrobromide] |  | 51900 | IC50 (cdMMP-2): 3310 nM
C[C@@H](NS(=O)(=O)c1ccccc1)C(=O)NC1=NN=C(c2ccc(C#N)cc2)CS1 [Example 1, (2R)-N-[5-(4-Cyanophenyl)-6H-1,3,4-thiadiazine-2-yl]-2-[(phenylsulfonyl)amino]-propanamide] | 353 | 468 | 
C[C@H](NS(=O)(=O)c1ccccc1)C(=O)NC1=NN=C(c2ccc(C(F)(F)F)cc2)CS1 [Example 4, (2S)-2-[(Phenylsulfonyl)amino]-N-{5-[4-(trifluormethyl)phenyl]-6H-1,3,4-thiadiazin-2-yl}propanamide] |  |  | percent inhibition (cdMMP-2): 25%^a)@ 15; IC50 (cdMMP-8): 515 nM
C[C@H](NS(=O)(=O)N1CCOCC1)C(=O)NC1=NN=C(c2ccc(Cl)cc2)CS1 [Example 28, (2S)-N-[5-(4-Chlorophenyl)-6H-1,3,4-thiadiazin-2yl-]-2-[(4-morpholinylsulfonyl)amino]propanamide] |  |  | IC50 (cdMMP-2): 662 nM; IC50 (cdMMP-8): 296 nM
C[C@H](NS(=O)(=O)c1cccnc1)C(=O)NC1=NN=C(c2ccc(Cl)cc2)CS1 [Example 29, (2S)-N-[5-(4-Chlorophenyl)-6H-1,3,4-thiadiazin-2-yl]-2-[(3-pyridylsulfonyl)-amino]propanamide] | 354 | 377 | 
